# Reference: ChEMBL document CHEMBL1629525, “Synthesis and characterization of 1,3-dihydro-benzo[b][1,4]diazepin-2-one derivatives: Part 4. In vivo active potent and selective non-competitive metabotropic glutamate receptor 2/3 antagonists” (Bioorg Med Chem Lett, 2010)
# Activity calls are given as the source filed them. No cut-off for these calls is given here.
# Tests used:
# [1] = molecular target: T1, Metabotropic glutamate receptor 2 (Rattus norvegicus, UniProt P31421); experiment: Antagonist activity at recombinant rat mGluR2 expressed in forskolin-stimulated CHO cells assessed as inhibition of (1S,3R)-ACPD induced cAMP production; type: functional, cell-based
# T1 sequence (P31421 whole entry): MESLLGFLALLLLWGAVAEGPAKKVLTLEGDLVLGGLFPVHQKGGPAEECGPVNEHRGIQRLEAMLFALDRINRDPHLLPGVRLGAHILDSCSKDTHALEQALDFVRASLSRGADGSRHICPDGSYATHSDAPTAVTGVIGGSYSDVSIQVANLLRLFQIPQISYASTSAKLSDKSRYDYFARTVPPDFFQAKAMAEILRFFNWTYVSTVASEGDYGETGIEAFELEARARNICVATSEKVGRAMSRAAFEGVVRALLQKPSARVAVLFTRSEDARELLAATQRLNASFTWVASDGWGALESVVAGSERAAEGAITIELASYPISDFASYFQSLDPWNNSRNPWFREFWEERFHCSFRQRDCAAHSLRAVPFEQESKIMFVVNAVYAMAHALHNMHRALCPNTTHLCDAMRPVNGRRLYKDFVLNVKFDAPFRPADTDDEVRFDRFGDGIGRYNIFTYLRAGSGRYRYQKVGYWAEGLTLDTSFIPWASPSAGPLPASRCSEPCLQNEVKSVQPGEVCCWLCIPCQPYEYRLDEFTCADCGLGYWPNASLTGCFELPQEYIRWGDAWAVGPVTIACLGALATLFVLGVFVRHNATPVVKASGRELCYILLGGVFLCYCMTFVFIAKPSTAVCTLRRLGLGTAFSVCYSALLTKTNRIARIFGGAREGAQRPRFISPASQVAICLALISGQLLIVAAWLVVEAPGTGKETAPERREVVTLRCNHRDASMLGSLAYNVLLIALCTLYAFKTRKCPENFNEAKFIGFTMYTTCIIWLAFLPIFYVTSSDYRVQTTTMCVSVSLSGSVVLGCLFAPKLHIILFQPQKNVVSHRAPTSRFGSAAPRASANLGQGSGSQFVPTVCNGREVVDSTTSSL
# [2] = molecular target: T1, Metabotropic glutamate receptor 2; experiment: Partial displacement of [3H]LY354740 from recombinant rat mGluR2
# [3] = molecular target: Metabotropic glutamate receptor 3 (Rattus norvegicus, UniProt P31422); experiment: Antagonist activity at rat mGluR3 receptor expressed in CHO cells assessed as inhibition of GIRK current; type: functional, cell-based
# Sequence of Metabotropic glutamate receptor 3 (P31422 whole entry): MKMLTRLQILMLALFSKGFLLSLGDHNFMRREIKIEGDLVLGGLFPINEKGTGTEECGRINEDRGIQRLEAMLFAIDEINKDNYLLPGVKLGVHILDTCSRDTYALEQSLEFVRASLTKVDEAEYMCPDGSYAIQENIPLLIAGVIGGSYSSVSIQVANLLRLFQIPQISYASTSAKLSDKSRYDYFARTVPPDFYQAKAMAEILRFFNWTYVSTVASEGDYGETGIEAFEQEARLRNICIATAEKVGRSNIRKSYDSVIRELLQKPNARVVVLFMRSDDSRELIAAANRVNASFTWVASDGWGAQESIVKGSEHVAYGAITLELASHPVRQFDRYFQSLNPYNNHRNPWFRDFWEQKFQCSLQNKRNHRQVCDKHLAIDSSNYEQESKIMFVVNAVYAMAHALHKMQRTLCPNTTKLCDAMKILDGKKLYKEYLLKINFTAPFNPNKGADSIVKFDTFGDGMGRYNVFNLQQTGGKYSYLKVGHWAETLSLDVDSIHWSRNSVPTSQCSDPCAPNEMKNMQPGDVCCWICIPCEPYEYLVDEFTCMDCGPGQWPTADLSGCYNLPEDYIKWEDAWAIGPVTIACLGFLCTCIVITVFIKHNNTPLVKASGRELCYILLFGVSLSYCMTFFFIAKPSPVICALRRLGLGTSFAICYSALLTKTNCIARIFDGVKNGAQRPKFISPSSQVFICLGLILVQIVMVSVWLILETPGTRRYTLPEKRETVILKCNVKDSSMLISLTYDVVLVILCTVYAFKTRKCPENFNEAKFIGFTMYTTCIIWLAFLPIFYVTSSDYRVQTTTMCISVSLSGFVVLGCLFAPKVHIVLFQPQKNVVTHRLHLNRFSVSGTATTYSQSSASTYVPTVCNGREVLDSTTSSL
# Rattus norvegicus [4] = experiment: Antagonist activity at rat mGluR3 assessed as inhibition of LY354740-induced hypoactivity at 10 mg/kg, po; type: functional, organism-based; design: dose 10 mg/kg
# [5] = Half life in rat at 2.5 mg/kg, iv; type: ADME, organism-based; design: dose 2.5 mg/kg, route intravenous; conditions: in vivo
# [6] = Thermodynamic solubility of the compound at pH 3; type: physicochemical; conditions: buffer
# [7] = molecular target: T1, Metabotropic glutamate receptor 2; experiment: Antagonist activity at rat mGluR2 receptor expressed in CHO cells assessed as inhibition of GIRK current; type: functional, cell-based
# Rattus norvegicus [8] = organism: Rattus norvegicus; experiment: Amnesic activity in rat assessed as latency to response by DMTP test; type: functional, organism-based
# Rattus norvegicus [9] = experiment: Neurotoxicity in rat assessed as locomotor activity upto 30 mg/kg, po by rotarod test; type: toxicity, organism-based; design: dose 30 mg/kg, route oral; conditions: in vivo
# Rattus norvegicus [10] = experiment: Agonist activity at rat mGluR3 assessed as decrease in spontaneous locomotor activity at 10 mg/kg, sc after 30 mins; type: functional, organism-based; design: dose 10 mg/kg
# [11] = Oral bioavailability in rat at 10 mg/kg, po; type: ADME, organism-based; conditions: in vivo
# Rattus norvegicus [12] = experiment: Antiamnesic activity in rat assessed as partial reversal of scopolamine-induced impairment of working memory at 0.06 mg/kg, sc by DMTP test; type: functional, organism-based; design: dose 0.06 mg/kg
# Cytochrome P450 3A4 = Cytochrome P450 3A4 (Homo sapiens, UniProt P08684); experiment: Inhibition of CYP3A4; type: ADME
# Sequence of Cytochrome P450 3A4 (P08684 whole entry): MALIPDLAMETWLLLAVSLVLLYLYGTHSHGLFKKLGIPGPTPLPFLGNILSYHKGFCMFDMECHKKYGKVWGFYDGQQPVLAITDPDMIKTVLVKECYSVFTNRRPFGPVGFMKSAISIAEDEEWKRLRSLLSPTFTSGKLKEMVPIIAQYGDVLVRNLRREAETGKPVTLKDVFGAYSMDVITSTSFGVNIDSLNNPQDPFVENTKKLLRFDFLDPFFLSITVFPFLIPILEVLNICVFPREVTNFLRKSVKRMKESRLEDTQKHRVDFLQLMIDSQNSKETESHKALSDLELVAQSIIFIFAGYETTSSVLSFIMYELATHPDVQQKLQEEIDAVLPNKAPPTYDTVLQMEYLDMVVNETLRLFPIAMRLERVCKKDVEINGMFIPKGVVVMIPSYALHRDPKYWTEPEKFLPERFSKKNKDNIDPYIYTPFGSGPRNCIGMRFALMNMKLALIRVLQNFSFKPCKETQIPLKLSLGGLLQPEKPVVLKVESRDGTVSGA
# [13] = Volume of dustribution at steady state in rat at 2.5 mg/kg, iv; type: ADME, organism-based; design: dose 2.5 mg/kg, route intravenous; conditions: in vivo, read-out: Vdss
# Rattus norvegicus [14] = experiment: Neurotoxicity in rat assessed as antidepressant-like activity at 1 mg/kg after 35 to 180 mins, po; type: toxicity, organism-based; design: dose 1 mg/kg, route oral; conditions: in vivo
# Rattus norvegicus [15] = experiment: Neurotoxicity in rat assessed as effect on spontaneous locomotor activity upto 30 mg/kg, po; type: toxicity, organism-based; design: dose 30 mg/kg, route oral; conditions: in vivo
# Rattus norvegicus [16] = organism: Rattus norvegicus; experiment: Antiamnesic activity in rat assessed as inhibition of LY354740-induced impairment of working memory by DMTP test; type: functional, organism-based
# [17] = Clearance in rat at 2.5 mg/kg, iv; type: ADME, organism-based; design: dose 2.5 mg/kg, route intravenous; conditions: in vivo
# Liver microsomes = experiment: Clearance in rat liver microsomes; type: ADME, Microsome
# Rattus norvegicus [18] = experiment: Antiamnesic activity in rat assessed as partial inhibition of LY354740-induced impairment of working memory at 3 mg/kg, po by DMTP test; type: functional, organism-based; design: dose 3 mg/kg
# Rhesus monkey = experiment: Induction of working memory impairment in Rhesus monkey by DMTP test; type: functional, organism-based; conditions: Macaca mulatta
# Rattus norvegicus [19] = organism: Rattus norvegicus; experiment: Amnesic activity in rat assessed as missed trials by DMTP test; type: functional, organism-based
# Rattus norvegicus [20] = experiment: Antiamnesic activity in rat assessed as partial inhibition of LY354740-induced impairment of working memory at 10 mg/kg, po by DMTP test; type: functional, organism-based; design: dose 10 mg/kg
# Rattus norvegicus [21] = experiment: Agonist activity at rat mGluR2 assessed as decrease in spontaneous locomotor activity at 10 mg/kg, sc after 30 mins; type: functional, organism-based; design: dose 10 mg/kg
# Homo sapiens = organism: Homo sapiens; experiment: Induction of cognitive impairment in human; type: functional, organism-based
# Rattus norvegicus [22] = organism: Rattus norvegicus; experiment: Induction of working memory impairment in rat by DMTP test; type: functional, organism-based
# Rattus norvegicus [23] = experiment: Antiamnesic activity in rat assessed as partial reversal of scopolamine-induced impairment of working memory at 3 mg/kg, po by DMTP test; type: functional, organism-based; design: dose 3 mg/kg
# [24] = Ratio of drug level in brain to plasma in rat; type: ADME; conditions: brain and plasma
# Rattus norvegicus [25] = experiment: Neurotoxicity in rat assessed as effect on grip strength upto 30 mg/kg, po; type: toxicity, organism-based; design: dose 30 mg/kg, route oral; conditions: in vivo
# Rattus norvegicus [26] = experiment: Antagonist activity at rat mGluR2 assessed as inhibition of LY354740-induced hypoactivity at 10 mg/kg, po; type: functional, organism-based; design: dose 10 mg/kg
# [27] = molecular target: Metabotropic glutamate receptor 2 (Homo sapiens, UniProt Q14416); experiment: Antagonist activity at human mGluR2 receptor expressed in CHO cells assessed as inhibition of GIRK current; type: functional, cell-based
# Sequence of Metabotropic glutamate receptor 2 (Homo sapiens, UniProt Q14416) (Q14416 whole entry): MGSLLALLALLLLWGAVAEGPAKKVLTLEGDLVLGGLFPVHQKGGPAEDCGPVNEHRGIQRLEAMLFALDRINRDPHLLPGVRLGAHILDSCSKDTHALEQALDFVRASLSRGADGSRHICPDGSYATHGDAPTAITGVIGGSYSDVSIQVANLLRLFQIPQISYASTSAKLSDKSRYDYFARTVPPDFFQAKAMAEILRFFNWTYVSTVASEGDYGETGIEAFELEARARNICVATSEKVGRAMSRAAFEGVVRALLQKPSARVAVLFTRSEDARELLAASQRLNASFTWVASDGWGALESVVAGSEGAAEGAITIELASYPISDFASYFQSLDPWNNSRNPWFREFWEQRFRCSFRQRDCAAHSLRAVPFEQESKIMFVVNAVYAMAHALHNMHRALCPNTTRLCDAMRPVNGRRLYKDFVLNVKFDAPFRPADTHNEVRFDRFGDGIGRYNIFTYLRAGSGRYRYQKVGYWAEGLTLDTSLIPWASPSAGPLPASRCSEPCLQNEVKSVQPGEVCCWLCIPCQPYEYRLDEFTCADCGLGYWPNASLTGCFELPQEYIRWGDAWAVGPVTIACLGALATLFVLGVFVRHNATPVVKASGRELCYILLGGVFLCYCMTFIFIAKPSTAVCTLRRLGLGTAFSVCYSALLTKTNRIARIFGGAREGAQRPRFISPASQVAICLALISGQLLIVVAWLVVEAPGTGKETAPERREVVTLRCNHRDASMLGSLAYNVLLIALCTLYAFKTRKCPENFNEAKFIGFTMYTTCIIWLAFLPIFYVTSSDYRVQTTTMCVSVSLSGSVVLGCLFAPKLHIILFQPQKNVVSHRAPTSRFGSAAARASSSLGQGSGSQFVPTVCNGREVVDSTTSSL
smiles,measurement,setting,value
CCc1cc(-c2cccc(C3=Nc4cc(C)c(C(F)(F)F)cc4NC(=O)C3)c2)ccn1,IC50,[1],0.005 µM
same,IC50,[2],0.008 µM
Cc1cc2c(cc1C(F)(F)F)NC(=O)CC(c1cccc(-c3ccc(N)nc3)c1)=N2,IC50,[1],0.16 µM
same,IC50,[2],0.014 µM
COCc1cc(-c2cccc(C3=Nc4cc(C)c(C(F)(F)F)cc4NC(=O)C3)c2)ccn1,IC50,[1],0.006 µM
same,IC50,[2],0.013 µM
Cc1cc2c(cc1C(F)(F)F)NC(=O)CC(c1cccc(-c3cccnn3)c1)=N2,IC50,[2],0.128 µM
Cc1ccc2c(c1)NC(=O)CC(c1ccccc1)=N2,IC50,[2],6.4 µM
Cc1cc(-c2cccc(C3=Nc4cc(C)c(C(F)(F)F)cc4NC(=O)C3)c2)cc(CO)n1,IC50,[1],0.015 µM
same,IC50,[2],0.014 µM
Cc1cc(-c2cccc(C3=Nc4cc(C)c(C(F)(F)F)cc4NC(=O)C3)c2)cc(C)n1,IC50,[3],< 0.01 µM
same,Activity,Rattus norvegicus [4],Active
same,half-life,[5],12.8 h
same,solubility thermodynamic,[6],64 µg/mL
same,IC50,[7],< 0.01 µM
same,Activity,Rattus norvegicus [8],Dose-dependent effect
same,Activity,Rattus norvegicus [9],Non-toxic
same,Activity,Rattus norvegicus [10],Dose-dependent effect
same,bioavailability,[11],52%
same,IC50,[1],0.003 µM
same,Activity,Rattus norvegicus [12],Active
same,IC50,Cytochrome P450 3A4,4.8 µM
same,Vd,[13],5.8 L/kg
same,Activity,Rattus norvegicus [14],Toxic
same,Activity,Rattus norvegicus [15],Non-toxic
same,Activity,Rattus norvegicus [16],Active
same,clearance,[17],5.7 mL/min/kg
same,CL,Liver microsomes,4.7 mL/min/kg
same,Activity,Rattus norvegicus [18],Dose-dependent effect
same,Activity,Rhesus monkey,Active
same,IC50,[2],0.002 µM
same,Activity,Rattus norvegicus [19],Dose-dependent effect
same,Activity,Rattus norvegicus [20],Active
same,Activity,Rattus norvegicus [21],Dose-dependent effect
same,Activity,Homo sapiens,Active
same,Activity,Rattus norvegicus [22],Dose-dependent effect
same,Activity,Rattus norvegicus [23],Active
same,Kp,[24],1.4
same,Activity,Rattus norvegicus [25],Non-toxic
same,Activity,Rattus norvegicus [26],Active
same,IC50,[27],0.014 µM
Cc1cc(-c2cccc(C3=Nc4cc(C)c(C(F)(F)F)cc4NC(=O)C3)c2)on1,IC50,[1],0.009 µM
same,IC50,[2],0.005 µM
CCOc1cc2c(cc1C(F)(F)F)NC(=O)CC(c1cccc(-c3ccnc(C)c3)c1)=N2,IC50,[3],0.003 µM
same,IC50,[1],0.008 µM
same,IC50,[2],0.006 µM
same,IC50,[27],0.015 µM
Cc1cc2c(cc1C(F)(F)F)NC(=O)CC(c1cccc(-c3ccnc(C(F)(F)F)c3)c1)=N2,IC50,[2],0.066 µM
Cc1cc(-c2cccc(C3=Nc4cc(C)c(C(F)(F)F)cc4NC(=O)C3)c2)cc(C2CC2)n1,IC50,[1],0.004 µM
same,IC50,[2],0.002 µM
Cn1nccc1-c1cccc(C2=Nc3ccc(C(F)(F)F)cc3NC(=O)C2)c1,IC50,[1],0.19 µM
same,IC50,[2],0.039 µM
O=C1CC(c2cccc(-n3ccnn3)c2)=Nc2ccc(-c3ccccc3F)cc2N1,IC50,[3],0.033 µM
same,IC50,[7],0.011 µM
same,IC50,[1],0.027 µM
same,IC50,[2],0.012 µM
Cc1cc2c(cc1C(F)(F)F)NC(=O)CC(c1cccc(-n3cncn3)c1)=N2,IC50,[1],0.075 µM
same,IC50,[2],0.008 µM
Cc1cc(-c2cccc(C3=Nc4cc(C)c(C(F)(F)F)cc4NC(=O)C3)c2)ccn1,IC50,[3],0.014 µM
same,solubility thermodynamic,[6],45 µg/mL
same,IC50,[7],0.013 µM
same,IC50,[1],0.004 µM
same,IC50,Cytochrome P450 3A4,1.9 µM
same,CL,Liver microsomes,0.8 mL/min/kg
same,IC50,[2],0.004 µM
same,IC50,[27],0.041 µM
Cc1cc2c(cc1C(F)(F)F)NC(=O)CC(c1cccc(-c3ccnc(C(C)C)c3)c1)=N2,IC50,[1],0.01 µM
same,IC50,[2],0.004 µM
CCOc1cc2c(cc1C(F)(F)F)NC(=O)CC(c1cccc(-c3ccncc3)c1)=N2,IC50,[3],0.006 µM
same,IC50,[7],0.008 µM
same,IC50,[1],0.01 µM
same,IC50,[2],0.004 µM
same,IC50,[27],0.038 µM
COc1ccc(-c2cccc(C3=Nc4cc(C)c(C(F)(F)F)cc4NC(=O)C3)c2)cn1,IC50,[1],0.01 µM
same,IC50,[2],0.005 µM
Cc1cc2c(cc1C(F)(F)F)NC(=O)CC(c1cccc(-c3ccc(C(C)C)nc3)c1)=N2,IC50,[1],0.01 µM
same,IC50,[2],0.01 µM
Cc1cc2c(cc1C(F)(F)F)NC(=O)CC(c1cccc(-c3ccc(C4CC4)nc3)c1)=N2,IC50,[1],0.02 µM
same,IC50,[2],0.006 µM
Cc1cc2c(cc1C(F)(F)F)NC(=O)CC(c1cccc(-c3ccnc(C(C)(C)O)c3)c1)=N2,IC50,[1],0.014 µM
same,IC50,[2],0.04 µM
Cc1cc2c(cc1C(F)(F)F)NC(=O)CC(c1cccc(-c3ccnc(-c4ccccc4)c3)c1)=N2,IC50,[2],0.118 µM
Cc1cc2c(cc1C(F)(F)F)NC(=O)CC(c1cccc(-c3cccnc3)c1)=N2,IC50,[1],0.003 µM
same,IC50,Cytochrome P450 3A4,1.8 µM
same,IC50,[2],0.002 µM
Cc1cc(-c2cccc(C3=Nc4ccc(C(F)(F)F)cc4NC(=O)C3)c2)ccn1,IC50,[3],0.017 µM
same,IC50,[1],0.036 µM
same,IC50,[2],0.018 µM
same,IC50,[27],0.025 µM
COc1cc(-c2cccc(C3=Nc4cc(C)c(C(F)(F)F)cc4NC(=O)C3)c2)ccn1,IC50,[1],0.016 µM
same,IC50,[2],0.013 µM
Cc1nc(-c2cccc(C3=Nc4ccc(C(F)(F)F)cc4NC(=O)C3)c2)co1,IC50,[2],0.35 µM
